Experimental data published in patent US11820984B2, “Double-helix oligonucleotide construct comprising double-stranded miRNA and use thereof” (BIONEER CORPORATION, priority 2018, dated 2023).

Columns and labels:
[1] = system: PC9 cell line; assay: relative cell viability (CellTiter-Glo), erlotinib-sensitive line; assay type: cell-based; conditions: PC9, 96 hours
Description: (§1) After 96 hours of additional culture, the relative viability of the cells was measured. These cell lines were used because they have genetic characteristics and drug resistance as follows. […] On the other hand, PC9/GR and PC9/ER contain delE764-A750 mutation, like PC9, and have T790M mutation. […] H1975 has L858R and T790M mutations, H596 has overexpressed EGFR, and H1650 has delE764-A750 mutation. […] The cell viability was measured using the CellTiter-Glo used in Example 1.

[2] = system: PC9/GR, PC9/ER, H1975, H596 and H1650 cell lines having resistance to erlotinib; assay: relative cell viability (CellTiter-Glo), erlotinib-resistant lines; assay type: cell-based; conditions: cell lines having resistance to erlotinib (EGFR T790M etc.), 96 hours
Description: as §1, with “measured.” for “measured. These cell lines were used because they have genetic characteristics and drug resistance as follows.”

[3] = system: lung cancer cell lines H2009, H596, H1650, PC9, PC9/GR, H1975, HCC827, and A549; assay: miRNA library screening, inhibition of proliferation (CellTiter-Glo); assay type: cell-based; conditions: 40 nM miRNA with RNAiMax, 96 hours, eight lung cancer cell lines
Description: Using the same miRNA library used in Korean Patent Application No. 10-2016-0022462, an experiment was performed to screen miRNAs that induce apoptosis of lung cancer cell lines. The lung cancer cell lines used in the experiment are as follows: H2009, H596, H1650, PC9, PC9/GR, H1975, HCC827, and A549 (purchased from the ATCC or the Korean Cell Line Bank). Each of the cell lines was seeded into a 96-well plate and treated with 40 nM of each miRNA together with the transfection reagent RNAiMax (Invitrogen), and the miRNA was delivered into the cells. After 96 hours of additional culture, the relative growth of the cells was measured using CellTiter-Glo reagent (Promega) (FIGS. 1 to 4).

[4] = system: PC9 and PC9/ER cell lines; assay: apoptosis analysis by annexin V / propidium iodide flow cytometry (FACS); assay type: cell-based; conditions: RNAiMax transfection, 48 hours, versus miRNA control
Description: After 48 hours of additional culture, the cells were treated with FITC fluorescent dye-labeled annexin V and propidium iodide (PI) and analyzed by flow cytometry (FACS).

[5] = system: 3′ UTR of EGFR mRNA; assay: luciferase assay with EGFR 3′ UTR firefly luciferase vector in HEK cells; assay type: cell-based, human
Description: Since miRNA inhibits protein production from target mRNA by binding to the 3′ UTR (untranslated region) of the target mRNA, luciferase assay is generally used as a method of directly measuring the relationship between miRNA and the target mRNA. Using the TargetScan software, a 3′ UTR sequence comprising a miRNA binding sequence was predicted. The predicted 3′ UTR sequence was cloned into the 3′ UTR of firefly luciferase by a gene cloning technique. The constructed vector and the miRNA of interest were co-transfected into human embryonic kidney (HEK) cells, and the luciferase expression level of the vector was measured. […] At this time, in order to correct the transfection efficiency, Renilla luciferase was also transfected to correct the measurement value. After co-transfection of the miRNA, firefly luciferase and Renilla luciferase, the cells were cultured for 48 hours, and then the luciferase activity was measured using a luminometer.

[6] = system: proteins involved in the EGFR signaling pathway; assay: Western blot analysis of proteins involved in the EGFR signaling pathway; assay type: cell-based
Description: It is known that the EGFR signaling pathway in the lung cancer cell lines used in the Examples is activated due to the presence of mutation in the EGFR protein and activation of the EGFR signaling pathway plays an important role in the survival of the cell lines.

[7] = system: EGFR mRNA; assay: RT-qPCR relative expression level of EGFR mRNA; assay type: cell-based; conditions: PC9, PC9/ER, H1975 and H596, versus negative control
[8] = Western blot, versus control group

Compound	concentration at which cells could be killed [1] [µM]	concentration at which apoptosis of the cells could be induced [2] [µM]	inhibition of cell proliferation (relative growth of the cells) [3]	number of dead cells (annexin V/PI) [4]	luciferase activity, EGFR 3′UTR vector ([5]; HEK cells, co-transfection, 48 hours, Renilla-corrected)	luciferase activity, EGFR 3′UTR with mutations in target regions ([5]; mutations EGFR 3′UTR 250-256, 2288-2295, and 3476-3482 nt)	inhibition of pEGFR and ERK phosphorylation, apoptosis (PARP) by Western blot ([6]; PC9 cell line)	amount of ERK, an activated form of the ERK protein ([6]; Western blot)	expression level of phosphorylated EGFR [6, 8]	expression level of the EGFR protein [6, 8]	inhibition of pEGFR and ERK phosphorylation, apoptosis (PARP) by Western blot ([6]; other cell lines having erlotinib resistance due to EGFR T790M mutation)	expression of EGFR mRNA [7]
C#Cc1cccc(Nc2ncnc3cc(OCCOC)c(OCCOC)cc23)c1 [erlotinib]	0.1	10	–	–	–	–	–	–	–	–	–	–
miR-544a: double-stranded miRNA consisting of SEQ ID NO: 1 (5'-AUUCUGCAUUUUUAGCAAGUUC-3') and SEQ ID NO: 2 (5'-ACUUGCUAAAAAUGCAGAAUUU-3') (listed as RNA, chemistry not given here)	–	–	excellent effect against the cell lines used	significantly higher than that in the cell line treated with the miRNA control	each target mRNA was controlled directly by the miRNA	the expression inhibition phenomenon by the miRNA disappeared	inhibit activated EGFR (pEGFR) and inhibit phosphorylation of the downstream signaling factor ERK	decreased	also decreased compared to that in the control group	significantly decreased compared to that in the control group	only miR-544a exhibits this effect	decreased in all the cell lines used in the experiment
